The supplement of paper PMC10307832

Assays:
Experiment in all cases: relative viability (nuclei count vs DMSO), 5 days (fraction); higher = more cells survive
[1] = compound: COC1=CC=C(C=C1)CN2C=CC3=C2C=C(C=C3)C(=O)NO + CC(=O)c1c(C)c2cnc(Nc3ccc(N4CCNCC4)cn3)nc2n(C2CCCC2)c1=O [Palbociclib] (partner 0.5 µM)
Procedure, shortened: (§1)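 Each reported value is a median over duplicate plates. It expresses relative viability: treated-well nuclei count divided by vehicle-well nuclei count. Lung cancer cell lines in 1536-well plates were dosed by pin tool a day after seeding, alone with one drug or with a fixed anchor-drug dose plus five library-drug doses (not always all listed) in √10 steps, and nuclei were counted after 5 days.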

Veliparib + Luminespib = compound: C[C@]1(c2nc3c(C(N)=O)cccc3[nH]2)CCCN1 [Veliparib] + CCNC(=O)c1noc(-c2cc(C(C)C)c(O)cc2O)c1-c1ccc(CN2CCOCC2)cc1 [Luminespib] (partner 0.01 µM)
Procedure, shortened: as §1

[2] = compound: COC1=CC=C(C=C1)CN2C=CC3=C2C=C(C=C3)C(=O)NO + CS(=O)(=O)CCNCc1ccc(-c2ccc3ncnc(Nc4ccc(OCc5cccc(F)c5)c(Cl)c4)c3c2)o1 [Lapatinib] (partner 2 µM)
Procedure, shortened: as §1

Veliparib + Tozasertib = compound: C[C@]1(c2nc3c(C(N)=O)cccc3[nH]2)CCCN1 [Veliparib] + Cc1cc(Nc2cc(N3CCN(C)CC3)nc(Sc3ccc(NC(=O)C4CC4)cc3)n2)n[nH]1 [Tozasertib] (partner 0.1 µM)
Procedure, shortened: as §1

Cell Line: SW 1573
- relative viability ([1]; first compound 0.253 µM): 0.397
- relative viability ([1]; first compound 0.8 µM): 0.474
- relative viability ([1]; first compound 2.53 µM): 0.392
- relative viability ([1]; first compound 8 µM): 0.326
- relative viability (Veliparib + Luminespib; first compound 0.02 µM): 0.169
- relative viability (Veliparib + Luminespib; first compound 0.06325 µM): 0.204
- relative viability (Veliparib + Luminespib; first compound 0.2 µM): 0.169
- relative viability (Veliparib + Luminespib; first compound 0.6325 µM): 0.254
- relative viability (Veliparib + Luminespib; first compound 2 µM): 0.214
- relative viability ([2]; first compound 0.253 µM): 1.07
- relative viability ([2]; first compound 0.8 µM): 1.36
- relative viability ([2]; first compound 2.53 µM): 1.2
- relative viability ([2]; first compound 8 µM): 0.859
- relative viability (Veliparib + Tozasertib; first compound 0.06325 µM): 0.175
- relative viability (Veliparib + Tozasertib; first compound 0.2 µM): 0.17
- relative viability (Veliparib + Tozasertib; first compound 0.6325 µM): 0.204
- relative viability (Veliparib + Tozasertib; first compound 2 µM): 0.175
